For data set [1], the system named is microtubule site. Conditions: higher than paclitaxel, same microtubule site; cited from earlier work.
For data set [2], the system named is MCF-7. Description: Paclitaxel cytotoxicity test (MTT assay). It counts as cell-based, human. To be noted: 1, 5, 10, 50 or 100 nM paclitaxel, 72 hr. As for the experimental part:
(§1) FIG. 5. Sensitivities of cell lines to Paclitaxel were judged according to a graph analysis of the Paclitaxel cytotoxicity test. […] The Paclitaxel cytotoxicity test was performed as follows. The cells were cultivated in wells of a 96-well culture plate in presence of 1, 5, 10, 50 or 100 nM Paclitaxel. After 72 hr cultivation, cell survival was measured by the MTT assay.
(§2) Drug sensitivity assays. Cells were detached by trypsinization, seeded at 2.0×10^3 cells/well in a 96-well microtiter plate, and treated with various concentrations of paclitaxel (1, 5, 10, 50, 100 and 1000 nM). Seventy-two hr later, the effects on cell growth were examined by 3-(4,5-dimethylthiazol-2-yl)-2,5-diphenyl tetrazolium bromide (MTT) assay: 20 μl of MTT solution (5 mg/ml in phosphate-buffered saline; Sigma Aldrich) was added to each well, and the cells were incubated for 4 hr at 37° C. The MTT-formazan formed by metabolically viable cells was dissolved in 100 μl of cell lysis buffer, and […] was monitored using a microplate at a wavelength of 570 nm. The percentage of cell growth was calculated by defining the absorption of cells not treated with paclitaxel (control) as 100%.
(§3) Sensitivities of four human breast cancer cell lines to paclitaxel were judged according to a graph analysis of the paclitaxel cytotoxicity test (FIG. 5). […] The paclitaxel cytotoxicity test was performed as follows. The cells were cultivated in wells of a 96-well culture plate in presence of 1, 5, 10, 50 or 100 nM paclitaxel. After 72 hr cultivation, cell survival was measured by the MTT assay.

The test system of data set [3] is MDA-MB231. Description: Paclitaxel cytotoxicity test (MTT assay). Conditions: 1, 5, 10, 50 or 100 nM paclitaxel, 72 hr. It counts as cell-based, human. Here is the method: as §1, §2, §3
A general note: Tetrazolium assays rely on reduction of a dye to a coloured formazan, in cell work by metabolically active cells.

The subject of data set [4] is T47D. As to the kind of experiment: Paclitaxel cytotoxicity test (MTT assay). It counts as cell-based, human. To be noted: 1, 5, 10, 50 or 100 nM paclitaxel, 72 hr. As for the experimental part: as §1, §2, §3
The test system of data set [5] is MDA-MB435. As to the kind of experiment: Paclitaxel cytotoxicity test (MTT assay). It counts as cell-based, human. To be noted: 1, 5, 10, 50 or 100 nM paclitaxel, 72 hr. Here is the method: as §1, §2, §3
For data set [6], the system named is advanced drug refractory ovarian cancer. Conditions: advanced drug refractory ovarian cancer patients; cited from earlier work.
Data set [7] relates to susceptible tumor (tumor of MDA-MB231). As to the kind of experiment: Tumor volume in tumor-bearing nude mice, susceptible tumor. It counts as in vivo. Conditions: 20 mg paclitaxel per day i.p. As for the experimental part: (§4) FIG. 7. The susceptible and resistant cells (1×10^7 cells/mouse) were inoculated into nude mice. When the tumor volume reached more than 300 mm^3, 20 mg of Paclitaxel per day was intraperitoneally administered on five consecutive days (Days 34-38 after the inoculations). The tumor size was recorded on Days 20-43. […] By contrast, the volume of resistant tumor remained at 350 mm^3 until Day 43.
(§5) To further confirm the above in vitro results, an in vivo validation study was performed. The susceptible and resistant cells were inoculated into nude mice. When the tumor volume reached more than 300 mm^3, 20 mg of paclitaxel per day was intraperitoneally administered on five consecutive days (Days 34-38 after the inoculations). The tumor size was recorded on days 20-43. […] By contrast, volume of resistant tumors remained at 350 mm^3 until day 43.
(§6) The susceptible and resistant cells (1×10^7 cells/mouse) were inoculated into nude mice. When the tumor volume reached more than 300 mm^3, 20 mg of paclitaxel per day was intraperitoneally administered on five consecutive days (Days 34-38 after the inoculations). The tumor size was recorded on days 20-43. […] By contrast, the volume of resistant tumor remained at 350 mm^3 until day 43 (FIG. 7).

The test system of data set [8] is MCF-7 cells. Description: Cell death analysis (trypan blue exclusion). It counts as cell-based, human. Conditions: MCF-7 control cells, paclitaxel 100 nM, 48 hr.
Protocol: FIG. 2B—MCF-7 cells transfected with siRNA/Mad2, BubR1, or both were examined for cell death induced by paclitaxel. Twenty-four hr after transfection, cells were treated with paclitaxel (100 nM) for 48 hr. Cell viability was assessed using trypan blue exclusion assay.
Cell death analysis. Cell death was evaluated using the trypan blue dye exclusion assay. Briefly, cells were harvested using trypsin and stained with 0.4% trypan blue dye (Sigma-Aldrich Chemical Co., St. Louis, Mo.). Trypan blue-positive and -negative cells were counted using a hemacytometer (Hausser Scientific, Horsham, Pa.) under a phase-contrast microscope (Fisher Scientific, Pittsburgh, Pa.). The results of each assay were expressed in terms of the percentage of dead cells relative to the total number of cells. Individual experiments were performed in triplicate.
Next, to determine whether these resistances were due to the reduction of cell death induced by paclitaxel, the inventors assessed the population of cell death using trypan blue exclusion.
Data set [9] deals with various lung cancers. Conditions: patients; cited from earlier work.
Data set [10] deals with resistant tumor (tumor of T47D). Description: Tumor volume in tumor-bearing nude mice, resistant tumor. It counts as in vivo. To be noted: 20 mg paclitaxel per day i.p., Days 34-38, until day 43. Here is the method:
as §4, §5, §6

For data set [11], the system named is CDK1 in tumor of MDA-MB231. As to the kind of experiment: Cell cycle profiling of tumor tissue lysates, CDK1 specific activity. It counts as in vivo, nude mice. Conditions: 24 hr after treatment. Here is the method:
(§7) FIG. 8. Lysates of the tumor tissues from tumor-bearing mice were subjected to cell cycle profiling. […] These are (A1) CDK1 specific activity 24 hr after treatment; (A2) CDK2 specific activity before treatment; (E5) MAD2 expression before treatment; (E3) Cyclin E expression before treatment; (E4) p21 expression before treatment; and (E1) CDK6 expression before treatment. The value plotted in the graph was calculated by dividing with the bigger raw value between two tumors on the each parameter.
(§8) Enzyme activity analyses of cell cycle profiling. Enzyme activity analyses of cell cycle profiling were performed using a non-radioisotopic method. Cell lysates were prepared as described for expression analysis. […] After three washes with washing buffer (0.1% NP-40, 50 mM Tris-Cl [pH 7.4]), 50 μl of the substrate mixture containing 10 μg of protein substrate, 5 mM adenosine 5′-O-(3-thiotriphosphate) (Sigma), 20 mM Tris-Cl (pH 7.4), and 0.1% Triton X-100 was added to the beads and incubated under continuous shaking at 37° C. for 10 min. Histone H1 (Upstate Biotechnology, Lake Placid, N.Y., USA) was used as the protein substrate for CDK1 and CDK2, and recombinant RB protein (amino acids 769-921) for CDK4 and CDK6. After the beads were removed, the introduced monothiophosphates in the substrate were further labeled by incubation with 10 mM iodoacetyl-biotin (Pierce) in coupling buffer (100 mM Tris-Cl [pH 8.5], 1 mM EDTA) for 90 min in the dark at room temperature. The reaction was quenched with β-mercaptoethanol, and 0.4 μg of the substrate was applied to the wells of the dot-blot device. The wells were blocked with 4% bovine serum albumin (BSA) for 30 min, then incubated with avidin-FITC (Vector) for 1 hr at 37° C.

The subject of data set [12] is CDK1 in tumor of T47D. The data set is described as above. To be noted: 24 hr after treatment. It counts as in vivo, nude mice. As for the experimental part:
as §7, §8

Data set [13] deals with Cdk1 activity in MCF-7 cells. As to the kind of experiment: Cdk1 kinase assay after paclitaxel treatment. It counts as cell-based, human. To be noted: MCF-7 control cells; paclitaxel 100 nM; 24 hr after treatment.
Protocol: Twenty-four hr after transfection, cells were treated with paclitaxel (100 nM) and harvested at the indicated times. FIG. 1D—Cyclin-dependent kinase-1 (Cdk1) activity after treatment with paclitaxel in each cell. Twenty-four hr after transfection, cells were treated with paclitaxel (100 nM) and harvested at the indicated times. Activity of Cdk1 in the lysates was determined as described in Experimental procedures.
Cdk1 kinase assay. The Cdk1 protein kinase assay was performed using the SignaTECT cdc2 protein assay system (Promega, Madison, Wis.). Briefly, the harvested cells were lysed with the extraction buffer (50 mM Tris [pH 7.4], 150 mM NaCl, 0.1% Triton X-100, and 1 mM EDTA) containing protease inhibitors (100 μg/ml aprotinin and 0.5 mM phenylmethane sulphonyl fluoride) and phosphatase inhibitors (50 mM NaF). These lysates were conjugated with a substrate consisting of cdc2-specific biotinylated peptide derived from histone H1 and [γ-^32P] ATP, and incubated at 30° C. for 10 min. […] After several washings, each captured membrane was placed into a separate vial and analyzed using a liquid scintillation counter (Beckman Coulter, Palo Alto, Calif.).
(§9) To test the effects of suppression of Mad2, BubR1, or both on the spindle assembly checkpoint activated by paclitaxel, the mitotic indices were determined and the Cdk1 activity measured, both of which reflect the status of this checkpoint.
In data set [14] the test system is previously treated metastatic breast cancer. To be noted: previously treated metastatic breast cancer patients; cited from earlier work.
The test system of data set [15] is MCF-7 cells. As to the kind of experiment: Mitotic indices after paclitaxel treatment. It counts as cell-based, human. To be noted: MCF-7 control (siRNA/control) cells; paclitaxel 100 nM; 24 hr after treatment.
Protocol: FIG. 1C—Mitotic indices of each cell after treatment with paclitaxel. Twenty-four hr after transfection, cells were treated with paclitaxel (100 nM) and harvested at the indicated times.
Calculation of mitotic indices. Cells with mitotic condensed chromatin were visualized by staining with 10 μM Hoechst 33342 dye (Aventis Pharmaceuticals Inc., Bridgewater, N.J.) in conjunction with 10 μg/ml propidium iodide; the propidium iodide was incorporated into dead cells only. […] The cells were harvested at 12, 24, and 36 hr after transfection and the mitotic indices calculated.
as §9

`CC(=O)O[C@@]12CO[C@@H]1C[C@H](O)[C@@]1(C)C(=O)[C@H](O)C3=C(C)[C@@H](OC(=O)[C@H](O)[C@@H](NC(=O)OC(C)(C)C)c4ccccc4)C[C@@](O)([C@@H](OC(=O)c4ccccc4)[C@H]21)C3(C)C` [docetaxel, (2R,3S)-N-carboxy-3-phenylisoserine, N-tert-butyl ester, 13-ester with 5b-20-epoxy-12a,4,7b,10b,13a-hexahydroxytax-11-en-9-one 4-acetate 2-benzoate, trihydrate]: the “affinity for the microtubule site relative to paclitaxel” value in [1] was 1.9 fold.
Turning to `CC(=O)O[C@H]1C(=O)[C@@]2(C)[C@H]([C@H](OC(=O)c3ccccc3)[C@]3(O)C[C@H](OC(=O)[C@H](O)[C@@H](NC(=O)c4ccccc4)c4ccccc4)C(C)=C1C3(C)C)[C@]1(OC(C)=O)CO[C@@H]1C[C@@H]2O` [paclitaxel], the “Sensitivity of cell line to paclitaxel (judged by graph analysis of cytotoxicity test)” value was “resistant” in data set [2], “susceptible” in data set [3], “resistant” in data set [4] and “susceptible” in data set [5]. Also, the Response rate in data set [6] is reported as 19-36%; in data set [9], 21-37%; in data set [14], 27-62%. Further, in [7] (Days 34-38), the “tumor volume before decrease (start value)” value is reported as 460 mm^3. The “tumor volume after decrease (end value)” value in [7] (Days 34-38, recorded to day 43) was 120 mm^3. The “levels of cell death” value in data set [8] is “high”. In data set [10], the “tumor volume remained at” value is on record as 350 mm^3. In addition, the results for the “CDK1 specific activity (A1), divided by the bigger raw value” in data set [11] and in data set [12] were 1.0 and 0.067, respectively. In addition, the entries for the “CDK1 specific activity (A1), raw value” in data set [11] and in data set [12] were 3.0 mU/ng of CDK1 and 0.2 mU/ng of CDK1, respectively. Moreover, in data set [13], the Cdk1 activity result is reported as “dramatic increase”. For the same compound, the “control cells arrested at mitosis” value in data set [15] is reported as “at least 80%”.

(Values after patent publication US8021831B2, “Taxane chemosensitivity prediction test” (Board of Regents, The University of Texas System, priority 2003, dated 2011).)
